Source: PubChem BioAssay (NCI)
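Exposure lasted 48 hours, with cells grown in 96-well plates and compounds tested at five concentrations. Abbreviation: GI50, concentration required for 50% inhibition of growth. TGI: total growth inhibition.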

Tests used:
Experiment in all cases: NCI-60 cell line screen, 48 h
NCI-H460 lung = system: NCI-H460 lung
NCI-H522 lung = system: NCI-H522 lung
NCI/ADR-RES ovarian = system: NCI/ADR-RES ovarian
OVCAR-3 ovarian = system: OVCAR-3 ovarian
OVCAR-4 ovarian = system: OVCAR-4 ovarian
OVCAR-5 ovarian = system: OVCAR-5 ovarian
OVCAR-8 ovarian = system: OVCAR-8 ovarian
PC-3 prostate = system: PC-3 prostate
RPMI-8226 leukemia = system: RPMI-8226 leukemia
RXF 393 renal = system: RXF 393 renal
SF-268 CNS = system: SF-268 CNS
SF-295 CNS = system: SF-295 CNS
SF-539 CNS = system: SF-539 CNS
SK-MEL-2 melanoma = system: SK-MEL-2 melanoma
SK-MEL-28 melanoma = system: SK-MEL-28 melanoma
SK-MEL-5 melanoma = system: SK-MEL-5 melanoma
SK-OV-3 ovarian = system: SK-OV-3 ovarian
SN12C renal = system: SN12C renal
SNB-19 CNS = system: SNB-19 CNS
SNB-75 CNS = system: SNB-75 CNS
SR leukemia = system: SR leukemia
SW-620 colon = system: SW-620 colon
T-47D breast = system: T-47D breast
TK-10 renal = system: TK-10 renal
U251 CNS = system: U251 CNS
UACC-257 melanoma = system: UACC-257 melanoma
UACC-62 melanoma = system: UACC-62 melanoma
UO-31 renal = system: UO-31 renal

`Brc1ccc(Nc2nc3ccccc3nc2Nc2ccc(Br)cc2)cc1` showed a GI50 (NCI-H460 lung) of 390 nM, a TGI (NCI-H460 lung) of 2560 nM and a GI50 (NCI-H522 lung) of 449 nM. For the same compound, the TGI (NCI-H522 lung) was 3250 nM, the GI50 (NCI/ADR-RES ovarian) was 1620 nM and the TGI (NCI/ADR-RES ovarian) was 10500 nM. It also gave a GI50 (OVCAR-3 ovarian) of 401 nM, a TGI (OVCAR-3 ovarian) of 1540 nM and a GI50 (OVCAR-4 ovarian) of 1250 nM. The TGI (OVCAR-4 ovarian) was 8980 nM, the GI50 (OVCAR-5 ovarian) was 1030 nM and the TGI (OVCAR-5 ovarian) was 5150 nM. The GI50 (OVCAR-8 ovarian) was 773 nM, the TGI (OVCAR-8 ovarian) was 10800 nM and the GI50 (PC-3 prostate) was 637 nM. For the same compound, the TGI (PC-3 prostate) was 10400 nM, the GI50 (RPMI-8226 leukemia) was 756 nM and the TGI (RPMI-8226 leukemia) was 5870 nM. For the same compound, the GI50 (RXF 393 renal) was 1490 nM, the TGI (RXF 393 renal) was 6380 nM and the GI50 (SF-268 CNS) was 1690 nM. For the same compound, the TGI (SF-268 CNS) was 13300 nM, the GI50 (SF-295 CNS) was 1440 nM and the TGI (SF-295 CNS) was 4220 nM. It also gave a GI50 (SF-539 CNS) of 1510 nM, a TGI (SF-539 CNS) of 3560 nM and a GI50 (SK-MEL-2 melanoma) of 2260 nM. The TGI (SK-MEL-2 melanoma) was 5480 nM, the GI50 (SK-MEL-28 melanoma) was 2180 nM and the TGI (SK-MEL-28 melanoma) was 6870 nM. The GI50 (SK-MEL-5 melanoma) was 1560 nM, the TGI (SK-MEL-5 melanoma) was 3110 nM and the GI50 (SK-OV-3 ovarian) was 2140 nM. The TGI (SK-OV-3 ovarian) was 7690 nM, the GI50 (SN12C renal) was 2160 nM and the TGI (SN12C renal) was 6500 nM. The GI50 (SNB-19 CNS) was 591 nM, the TGI (SNB-19 CNS) was 12200 nM and the GI50 (SNB-75 CNS) was 1900 nM. For the same compound, the TGI (SNB-75 CNS) was 7040 nM, the GI50 (SR leukemia) was 715 nM and the TGI (SR leukemia) was 5520 nM. The GI50 (SW-620 colon) was 2780 nM, the TGI (SW-620 colon) was 10500 nM and the GI50 (T-47D breast) was 936 nM. It also gave a TGI (T-47D breast) of 7090 nM, a GI50 (TK-10 renal) of 1810 nM and a TGI (TK-10 renal) of 6600 nM. For the same compound, the GI50 (U251 CNS) was 429 nM, the TGI (U251 CNS) was 2220 nM and the GI50 (UACC-257 melanoma) was 2010 nM. For the same compound, the TGI (UACC-257 melanoma) was 5900 nM, the GI50 (UACC-62 melanoma) was 1940 nM and the TGI (UACC-62 melanoma) was 5370 nM. For the same compound, the GI50 (UO-31 renal) was 1830 nM and the TGI (UO-31 renal) was 6300 nM.
